In ChEMBL document CHEMBL4725417, “Membrane Permeable, Bioreversibly Modified Prodrugs of Nucleoside Diphosphate-γ-Phosphonates” (J Med Chem, 2020):
The source made the active and inactive calls. The rule behind the calls is not given here.

Columns and labels:
[1] = test system: Human immunodeficiency virus 2; assay: Antiviral activity against HIV2 ROD infected in human TK-deficient CEM/TK- T-cells assessed as reduction in virus-induced cytopathogenicity by measuring syncytia cell formation incubated for 4 to 5 days by microscopy; settings: Human immunodeficiency virus 2, ISOLATE ROD
[2] = Half life in pH 7.3 PBS buffer at 1.4 mM by HPLC analysis; assay type: physicochemical
[3] = Cytotoxicity in human CEM cells assessed as reduction in cell proliferation; assay type: cell-based; settings: CEM cells (CCRF-CEM)
[4] = Half life assessed as pig liver esterase-mediated compound hydrolysis at 6 mM by HPLC analysis; assay type: ADME, Sus scrofa
[5] = Half life in human CEM/0 cell extracts at 6 mM by HPLC analysis; assay type: ADME, tissue-based, CCRF-CEM
[6] = test system: Human immunodeficiency virus 2; assay: Antiviral activity against HIV2 ROD infected in human CEM/0 CD4+ T cells assessed as reduction in virus-induced cytopathogenicity by measuring syncytia cell formation incubated for 4 to 5 days by microscopy; settings: Human immunodeficiency virus 2, ISOLATE ROD, CCRF-CEM
[7] = test system: Human immunodeficiency virus 1; assay: Antiviral activity against HIV1 3B infected in human CEM/0 CD4+ T cells assessed as reduction in virus-induced cytopathogenicity by measuring syncytia cell formation incubated for 4 to 5 days by microscopy; assay type: functional, organism-based; settings: Human immunodeficiency virus 1, 3B, CCRF-CEM
[8] = organism: Homo sapiens; assay: Substrate activity at human DNA polymerase gamma incubated at 37 degC for 60 mins and at 80 degC for 7 mins by primer extension assay; settings: time 67.0 min
[9] = biological target: DNA polymerase beta (Homo sapiens) (UniProt P06746); assay: Substrate activity at human DNA polymerase beta incubated at 37 degC for 60 mins and at 80 degC for 7 mins by primer extension assay; settings: time 67.0 min
[10] = biological target: Human immunodeficiency virus type 1 reverse transcriptase (Human immunodeficiency virus 1) (UniProt Q72547); assay: Substrate activity at HIV1 reverse transcriptase incubated at 37 degC for 30 mins and at 80 degC for 7 mins by primer extension assay; settings: time 37.0 min
[11] = biological target: T1, DNA polymerase alpha catalytic subunit (Homo sapiens) (UniProt P09884); assay: Substrate activity at human DNA polymerase alpha incubated at 37 degC for 60 mins and at 80 degC for 7 mins by primer extension assay; settings: time 67.0 min
T1 sequence (whole entry): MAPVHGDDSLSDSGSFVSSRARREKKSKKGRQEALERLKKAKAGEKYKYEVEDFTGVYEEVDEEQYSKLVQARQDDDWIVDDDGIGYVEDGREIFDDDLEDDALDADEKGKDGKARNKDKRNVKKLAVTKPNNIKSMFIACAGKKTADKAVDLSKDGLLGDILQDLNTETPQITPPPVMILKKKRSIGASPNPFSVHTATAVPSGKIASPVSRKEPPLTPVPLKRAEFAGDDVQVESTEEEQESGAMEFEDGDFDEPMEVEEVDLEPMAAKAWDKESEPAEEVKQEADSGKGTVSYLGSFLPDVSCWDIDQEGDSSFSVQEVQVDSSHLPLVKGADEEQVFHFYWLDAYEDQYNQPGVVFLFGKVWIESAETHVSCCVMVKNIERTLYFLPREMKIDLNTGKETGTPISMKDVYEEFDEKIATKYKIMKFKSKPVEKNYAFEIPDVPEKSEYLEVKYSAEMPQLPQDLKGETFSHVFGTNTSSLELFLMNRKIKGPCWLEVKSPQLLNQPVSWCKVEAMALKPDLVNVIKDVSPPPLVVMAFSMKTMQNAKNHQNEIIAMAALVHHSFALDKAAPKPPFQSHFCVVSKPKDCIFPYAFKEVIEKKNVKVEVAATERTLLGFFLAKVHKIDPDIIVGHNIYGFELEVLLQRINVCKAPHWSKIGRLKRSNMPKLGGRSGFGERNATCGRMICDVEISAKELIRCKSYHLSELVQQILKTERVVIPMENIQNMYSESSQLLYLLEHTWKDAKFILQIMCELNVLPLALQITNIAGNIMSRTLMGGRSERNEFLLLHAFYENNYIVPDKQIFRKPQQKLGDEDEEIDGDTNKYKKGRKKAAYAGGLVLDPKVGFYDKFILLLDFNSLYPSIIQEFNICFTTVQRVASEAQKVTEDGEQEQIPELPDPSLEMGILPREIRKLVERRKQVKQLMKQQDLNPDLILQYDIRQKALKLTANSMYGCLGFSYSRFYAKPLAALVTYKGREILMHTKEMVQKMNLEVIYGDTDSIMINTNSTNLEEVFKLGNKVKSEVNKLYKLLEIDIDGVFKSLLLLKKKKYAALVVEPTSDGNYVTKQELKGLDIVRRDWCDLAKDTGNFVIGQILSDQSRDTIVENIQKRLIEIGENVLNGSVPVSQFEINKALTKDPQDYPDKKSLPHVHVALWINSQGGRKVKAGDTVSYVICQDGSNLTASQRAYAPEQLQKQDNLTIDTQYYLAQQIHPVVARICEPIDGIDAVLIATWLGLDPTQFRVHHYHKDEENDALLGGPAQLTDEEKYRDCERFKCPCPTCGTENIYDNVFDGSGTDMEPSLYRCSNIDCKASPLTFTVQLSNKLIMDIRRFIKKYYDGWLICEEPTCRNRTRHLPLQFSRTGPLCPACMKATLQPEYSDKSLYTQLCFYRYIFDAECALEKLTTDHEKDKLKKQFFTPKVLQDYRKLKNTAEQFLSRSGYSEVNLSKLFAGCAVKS

Row | Compound | EC50 [1] [nM] | half-life at 1400 µM [2] [days] | CC50 [3] [nM] | half-life at 6000 µM [4] [h] | half-life at 6000 µM [5] [h] | EC50 [6] [nM] | EC50 [7] [nM] | Activity [8] | Activity [9] | Activity [10] | Activity [11]
1 | CCCCCCCCCCCCP(=O)(OCc1ccc(OC(=O)CCCC)cc1)OP(=O)(O)OP(=O)(O)OC[C@@H]1C=C[C@H](n2cc(C)c(=O)[nH]c2=O)O1.N.N (stereo partly drawn) | 3430 | 8.96 | 86000 | 0.013 | 0.81 | 25 | 65 |  |  |  | 
2 | CCCCCCCCCCCCP(=O)(OCc1ccc(OC(=O)OCCCC)cc1)OP(=O)(O)OP(=O)(O)OC[C@@H]1C=C[C@H](n2cc(C)c(=O)[nH]c2=O)O1.N.N (stereo partly drawn) | 9900 | 14.4 | 38000 | 0.009 | 4.3 | 200 | 97 |  |  |  | 
3 | CCCCCCCCCCCCP(=O)(OCCC#N)OP(=O)(O)OP(=O)(O)OC[C@@H]1C=C[C@H](n2cc(C)c(=O)[nH]c2=O)O1.N.N (stereo partly drawn) | 20900 | 6.17 | > 100000 | > 80 | > 15 | 87 | 210 |  |  |  | 
4 | CCCCCCCCCCCCP(=O)(O)OP(=O)(O)OP(=O)(O)OC[C@@H]1C=C[C@H](n2cc(C)c(=O)[nH]c2=O)O1.N.N.N | 41100 | > 125 | > 100000 | > 150 | > 30 | 170 | 150 | inactive | inactive | Active | inactive
5 | CCCCCCCCCCCCP(=O)(OCc1ccc(OC(=O)CCCCCCCCCCC)cc1)OP(=O)(O)OP(=O)(O)OC[C@@H]1C=C[C@H](n2cc(C)c(=O)[nH]c2=O)O1.N.N (stereo partly drawn) | 66 | 38.3 | 37000 | 0.917 | > 8 | 91 | 7.4 |  |  |  | 
6 | CCCCCCCCCCCCP(=O)(OCc1ccc(OC(C)=O)cc1)OP(=O)(O)OP(=O)(O)OC[C@@H]1C=C[C@H](n2cc(C)c(=O)[nH]c2=O)O1.N.N (stereo partly drawn) | 26300 | 4.29 | > 100000 | 0.46 | 0.043 | 21 | 23 |  |  |  | 
7 | CCCCCCCCCCCCCCP(=O)(OCc1ccc(OC(=O)OCCCC)cc1)OP(=O)(O)OP(=O)(O)OC[C@@H]1C=C[C@H](n2cc(C)c(=O)[nH]c2=O)O1.N.N (stereo partly drawn) | 1760 | 21.6 | 32000 | 0.032 | 64 | 220 | 120 |  |  |  | 
